These results are taken from BindingDB's records for doi:10.1021/acs.jmedchem.5b00570 (Academy of Sciences of The Czech Republic V.V.I., 2015).

Assay [1] concerns the target Glutamate receptor ionotropic, NMDA 1/2A (Homo sapiens, UniProt Q12879+Q05586). Kind of assay: Inhibition of recombinant GluN1/GluN2A receptor (unknown origin) expressed in HEK293 cells assessed as inhibition of glutamate-evoked current by whole-cell voltage-clamp method.
The target in assay [2] is Glutamate receptor ionotropic, NMDA 1/2B (Homo sapiens, UniProt Q05586+Q13224). Kind of assay: Inhibition of recombinant GluN1/GluN2B receptor (unknown origin) expressed in HEK293 cells assessed as inhibition of glutamate-evoked current by whole-cell voltage-clamp method.
The target of assay [3] is Glutamate receptor ionotropic, NMDA 1/2C (Homo sapiens, UniProt Q05586+Q14957). Kind of assay: Inhibition of recombinant GluN1/GluN2C receptor (unknown origin) expressed in HEK293 cells assessed as inhibition of glutamate-evoked current by whole-cell voltage-clamp method.
In assay [4] the target is Glutamate receptor ionotropic, NMDA 1/2D (Homo sapiens, UniProt Q05586+O15399). Kind of assay: Inhibition of recombinant GluN1/GluN2D receptor (unknown origin) expressed in HEK293 cells assessed as inhibition of glutamate-evoked current by whole-cell voltage-clamp method.

Sequence of Glutamate receptor ionotropic, NMDA 1/2C (Q14957 whole entry, other chains not shown): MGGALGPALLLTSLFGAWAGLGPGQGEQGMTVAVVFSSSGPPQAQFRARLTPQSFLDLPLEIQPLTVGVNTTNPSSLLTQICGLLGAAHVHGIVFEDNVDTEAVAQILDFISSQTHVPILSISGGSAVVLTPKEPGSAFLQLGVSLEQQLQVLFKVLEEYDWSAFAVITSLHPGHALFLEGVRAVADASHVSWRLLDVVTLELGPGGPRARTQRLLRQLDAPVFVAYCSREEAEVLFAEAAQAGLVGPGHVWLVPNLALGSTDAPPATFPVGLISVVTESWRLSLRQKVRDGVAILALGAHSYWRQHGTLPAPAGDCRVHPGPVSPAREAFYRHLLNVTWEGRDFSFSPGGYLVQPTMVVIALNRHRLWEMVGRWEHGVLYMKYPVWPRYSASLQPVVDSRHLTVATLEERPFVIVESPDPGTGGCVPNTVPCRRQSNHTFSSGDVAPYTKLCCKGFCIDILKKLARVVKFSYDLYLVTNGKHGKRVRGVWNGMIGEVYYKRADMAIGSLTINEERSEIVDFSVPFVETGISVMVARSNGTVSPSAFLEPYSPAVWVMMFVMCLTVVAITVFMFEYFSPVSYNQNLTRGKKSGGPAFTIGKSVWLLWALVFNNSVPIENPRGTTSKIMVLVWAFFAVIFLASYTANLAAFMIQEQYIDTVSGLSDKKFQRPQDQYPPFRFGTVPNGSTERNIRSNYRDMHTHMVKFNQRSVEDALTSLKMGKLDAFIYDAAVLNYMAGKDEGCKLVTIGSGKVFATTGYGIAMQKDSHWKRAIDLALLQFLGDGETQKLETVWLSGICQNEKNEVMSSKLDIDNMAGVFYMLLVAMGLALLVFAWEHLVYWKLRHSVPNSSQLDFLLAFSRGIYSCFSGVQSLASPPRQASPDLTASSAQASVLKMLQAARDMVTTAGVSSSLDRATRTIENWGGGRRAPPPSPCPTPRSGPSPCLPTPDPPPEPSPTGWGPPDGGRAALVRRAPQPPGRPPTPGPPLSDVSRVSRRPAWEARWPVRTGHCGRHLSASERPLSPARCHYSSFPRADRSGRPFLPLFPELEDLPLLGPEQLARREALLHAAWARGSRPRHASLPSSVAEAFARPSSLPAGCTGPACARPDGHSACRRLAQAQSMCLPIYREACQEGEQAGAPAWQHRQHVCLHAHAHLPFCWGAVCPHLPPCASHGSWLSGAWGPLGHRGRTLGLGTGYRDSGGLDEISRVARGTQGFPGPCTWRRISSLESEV
Sequence of Glutamate receptor ionotropic, NMDA 1/2A (Q12879 whole entry, other chains not shown): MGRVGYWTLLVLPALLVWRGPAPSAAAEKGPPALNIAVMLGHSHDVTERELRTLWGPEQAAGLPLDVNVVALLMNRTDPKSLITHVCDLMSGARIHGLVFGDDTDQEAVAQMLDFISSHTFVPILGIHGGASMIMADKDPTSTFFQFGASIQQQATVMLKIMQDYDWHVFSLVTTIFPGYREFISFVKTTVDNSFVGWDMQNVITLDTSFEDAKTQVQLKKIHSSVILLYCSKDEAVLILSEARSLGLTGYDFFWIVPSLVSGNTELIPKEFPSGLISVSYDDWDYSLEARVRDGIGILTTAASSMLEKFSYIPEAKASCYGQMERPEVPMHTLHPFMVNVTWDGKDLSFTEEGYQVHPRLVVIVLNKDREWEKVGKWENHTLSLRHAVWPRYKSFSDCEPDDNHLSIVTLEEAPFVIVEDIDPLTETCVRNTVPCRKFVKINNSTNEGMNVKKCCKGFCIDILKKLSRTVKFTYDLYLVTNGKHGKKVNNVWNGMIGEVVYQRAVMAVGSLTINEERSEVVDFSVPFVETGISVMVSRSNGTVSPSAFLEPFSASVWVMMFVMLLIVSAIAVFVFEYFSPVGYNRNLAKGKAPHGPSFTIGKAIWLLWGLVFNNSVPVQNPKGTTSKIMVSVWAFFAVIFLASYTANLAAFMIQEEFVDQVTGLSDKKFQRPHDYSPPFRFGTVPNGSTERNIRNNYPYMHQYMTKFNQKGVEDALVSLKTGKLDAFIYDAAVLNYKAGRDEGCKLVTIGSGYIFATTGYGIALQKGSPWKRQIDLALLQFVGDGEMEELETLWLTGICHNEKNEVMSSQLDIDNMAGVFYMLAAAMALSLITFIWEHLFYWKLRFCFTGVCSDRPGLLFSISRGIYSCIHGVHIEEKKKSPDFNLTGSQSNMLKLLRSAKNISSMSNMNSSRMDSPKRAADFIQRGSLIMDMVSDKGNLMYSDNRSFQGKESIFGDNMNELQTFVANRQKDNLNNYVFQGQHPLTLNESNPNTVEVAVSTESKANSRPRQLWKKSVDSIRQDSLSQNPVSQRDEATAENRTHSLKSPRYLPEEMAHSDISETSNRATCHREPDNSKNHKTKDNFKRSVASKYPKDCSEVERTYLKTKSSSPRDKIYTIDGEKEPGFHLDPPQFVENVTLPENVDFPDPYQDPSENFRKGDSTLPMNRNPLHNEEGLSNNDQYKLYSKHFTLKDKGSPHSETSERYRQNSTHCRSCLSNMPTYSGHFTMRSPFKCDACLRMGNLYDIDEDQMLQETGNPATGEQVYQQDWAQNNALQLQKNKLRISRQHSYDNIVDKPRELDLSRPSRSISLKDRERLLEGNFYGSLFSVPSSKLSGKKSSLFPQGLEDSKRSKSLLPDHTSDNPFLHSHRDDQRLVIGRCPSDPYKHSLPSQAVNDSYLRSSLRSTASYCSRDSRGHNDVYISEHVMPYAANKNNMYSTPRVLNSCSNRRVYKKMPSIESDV
Sequence of Glutamate receptor ionotropic, NMDA 1/2B (Q13224 whole entry, other chains not shown): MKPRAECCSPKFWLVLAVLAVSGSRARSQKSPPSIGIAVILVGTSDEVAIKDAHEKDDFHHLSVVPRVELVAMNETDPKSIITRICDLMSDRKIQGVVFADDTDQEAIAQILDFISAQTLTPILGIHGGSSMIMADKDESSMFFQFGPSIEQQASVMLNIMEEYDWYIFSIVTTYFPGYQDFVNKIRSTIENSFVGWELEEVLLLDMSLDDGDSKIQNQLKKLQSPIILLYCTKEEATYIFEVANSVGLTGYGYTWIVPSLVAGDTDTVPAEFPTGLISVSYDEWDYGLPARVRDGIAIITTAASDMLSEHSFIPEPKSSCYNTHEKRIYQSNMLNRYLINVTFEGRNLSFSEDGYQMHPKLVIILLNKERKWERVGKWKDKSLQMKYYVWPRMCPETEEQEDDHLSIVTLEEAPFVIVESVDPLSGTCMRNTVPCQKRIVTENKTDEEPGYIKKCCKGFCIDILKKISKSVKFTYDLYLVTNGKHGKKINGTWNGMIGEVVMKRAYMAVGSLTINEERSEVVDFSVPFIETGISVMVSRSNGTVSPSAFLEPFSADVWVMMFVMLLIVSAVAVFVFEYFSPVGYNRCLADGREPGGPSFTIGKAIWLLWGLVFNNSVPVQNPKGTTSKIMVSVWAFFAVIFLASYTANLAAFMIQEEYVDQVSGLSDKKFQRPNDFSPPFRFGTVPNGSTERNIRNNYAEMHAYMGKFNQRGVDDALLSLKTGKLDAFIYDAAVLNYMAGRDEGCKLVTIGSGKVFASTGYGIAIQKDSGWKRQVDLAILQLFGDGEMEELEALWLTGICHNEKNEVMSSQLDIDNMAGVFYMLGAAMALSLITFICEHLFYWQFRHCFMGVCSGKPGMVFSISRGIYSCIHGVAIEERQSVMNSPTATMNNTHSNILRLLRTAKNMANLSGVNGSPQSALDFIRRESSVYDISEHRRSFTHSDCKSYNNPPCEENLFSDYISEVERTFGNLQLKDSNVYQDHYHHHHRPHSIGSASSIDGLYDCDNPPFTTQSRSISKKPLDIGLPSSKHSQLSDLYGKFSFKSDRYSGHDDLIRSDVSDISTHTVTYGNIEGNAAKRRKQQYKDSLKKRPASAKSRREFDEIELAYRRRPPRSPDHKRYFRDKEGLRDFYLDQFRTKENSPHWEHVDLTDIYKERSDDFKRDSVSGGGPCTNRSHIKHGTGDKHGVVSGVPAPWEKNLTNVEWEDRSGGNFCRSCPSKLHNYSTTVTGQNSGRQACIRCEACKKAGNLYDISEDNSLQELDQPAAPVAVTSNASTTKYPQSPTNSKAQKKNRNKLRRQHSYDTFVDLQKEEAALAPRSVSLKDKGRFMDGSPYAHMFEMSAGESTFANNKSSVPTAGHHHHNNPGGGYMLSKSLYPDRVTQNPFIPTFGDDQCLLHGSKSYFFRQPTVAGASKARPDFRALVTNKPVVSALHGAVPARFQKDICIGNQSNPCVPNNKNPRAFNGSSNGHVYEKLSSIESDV

The IC50 is the concentration that inhibits the measured activity by half. Consider `C[C@H]1CC[C@H]2[C@@H]3CC[C@@H]4C[C@H](OS(=O)(=O)O)CC[C@]4(C)[C@H]3CC[C@]12C`, for which the IC50 in assay [1] was found to be 600 nM; in assay [2], 600 nM; in assay [3], 400 nM; in assay [4] it was 500 nM.
